According to patent US7241794B2, “Nonnucleoside reverse transcriptase inhibitors” (RochePalo Alto LLC, priority 2003, dated 2007):

Molecular target: HIV-1 RT (Human immunodeficiency virus type 1 group M subtype B, UniProt P03366)
Experiment: HIV Reverse Transcriptase Assay: Inhibitor IC50 Determination
Type: biochemical
Details: purified recombinant enzyme, poly(rA)/oligo(dT)16 template-primer; read-out: IC50(μM) RTI
Description: HIV Reverse Transcriptase Assay: Inhibitor IC50 Determination
HIV-1 RT assay was carried out in 96-well Millipore MultiScreen MADVNOB50 plates using purified recombinant enzyme and a poly(rA)/oligo(dT)16 template-primer in a total volume of 50 μL. The assay constituents were 50 mM Tris/HCl, 50 mM NaCl, 1 mM EDTA, 6 mM MgCl2, 5 μM dTTP, 0.15 μCi [^3H] dTTP, 5 μg/ml poly (rA) pre annealed to 2.5 μg/ml oligo (dT)16 and a range of inhibitor concentrations in a final concentration of 10% DMSO. Reactions were initiated by adding 4 nM HIV-1 RT and after incubation at 37° C. for 30 min, they were stopped by the addition of 50 μl ice cold 20% TCA and allowed to precipitate at 4° C. for 30 min. The precipitates were collected by applying vacuum to the plate and sequentially washing with 3×200 μl of 10% TCA and 2×200 μl 70% EtOH. Finally, the plates were dried and radioactivity counted in a Packard TopCounter after the addition of 25 μl scintillation fluid per well. IC50'swere calculated by plotting % inhibition versus log10 inhibitor concentrations. Representative IC50 data has been included in Table 2.

SMILES	IC50
CCc1c(CO)nn(CC)c1Oc1cc(Cl)cc(Cl)c1 [Cpd 17, [5-(3,5-Dichloro-phenoxy)-1,4-diethyl-1H-pyrazol-3-yl]-methanol]	1.66 µM
CCCc1c(CO)nn(CC)c1Oc1cc(Cl)cc(Cl)c1 [Cpd 22, [5-(3,5-Dichloro-phenoxy)-1-ethyl-4-propyl-1H-pyrazol-3-yl]-methanol]	1.56 µM
CCc1c(CCO)nn(C(C)C)c1Oc1cc(Cl)cc(Cl)c1 [Cpd 36, 2-[5-(3,5-Dichloro-phenoxy)-4-ethyl-1-isopropyl-1H-pyrazol-3-yl]-ethanol]	0.0383 µM
CCc1c(CNC=O)nn(C(C)C)c1Oc1cc(Cl)cc(Cl)c1 [Cpd 40, N-[5-(3,5-Dichloro-phenoxy)-4-ethyl-1-isopropyl-1H-pyrazol-3-ylmethyl]-formamide]	0.648 µM
CCc1c(CCN)nn(C(C)C)c1Oc1cc(Cl)cc(Cl)c1 [Cpd 48, 2-[5-(3,5-Dichloro-phenoxy)-4-ethyl-1-isopropyl-1H-pyrazol-3-yl]-ethylamine]	1.07 µM

Test system: HXB2-strain of HIV in MT4 cells
Experiment: Antiviral assay: protection of HIV-infected MT4 cells from cell death (MTT)
Type: cell-based
Details: Human immunodeficiency virus 1, 120 h, MT4 cells infected with HXB2-strain of HIV, 5 days
Description: Anti-HIV antiviral activity was assessed using an adaptation of the method of Pauwels et al. {Pauwels et al., 1988, J Virol Methods 20:309-321 }. The method is based on the ability of compounds to protect HIV-infected T lymphoblastoid cells (MT4 cells) from cell-death mediated by the infection. The endpoint of the assay was calculated as the concentration of compound at which the cell viability of the culture was preserved by 50% (‘50% inhibitory concentration’, IC50). The cell viability of a culture was determined by the uptake of soluble, yellow 3-[4,5-dimethylthiazol-2-yl]-2,5-diphenyltetrazolium bromide (MTT) and its reduction to a purple insoluble formazan salt. After solubilization, spectrophotometric methods were employed to measure the amount of formazan product. […]
A fresh solution of 5 mg/mL MTT was prepared in 0.01 M phosphate buffered saline, pH 7.2 and 20 microliters added to each culture. […] When the formazan deposit was fully solubilized by further mixing, the absorbance (OD) of the cultures was measured at 540 nm and 690 nm wavelength (690 nm readings were used as blanks for artifacts between wells). The percent protection for each treated culture was then calculated from the equation: […]

SMILES	IC50
CCc1c(CO)nn(CC)c1Oc1cc(Cl)cc(Cl)c1 [Cpd 17, [5-(3,5-Dichloro-phenoxy)-1,4-diethyl-1H-pyrazol-3-yl]-methanol]	0.0401 µM

Test system: not given
Experiment: not given
Details: not given

melting point	SMILES
103 to 105.8 °C	CCn1nc(CCO)c(Cc2ccncc2)c1Oc1cc(Cl)cc(Cl)c1 [Cpd 85, 2-[5-(3,5-Dichloro-phenoxy)-1-ethyl-4-pyridin-4-ylmethyl-1H-pyrazol-3-yl]-ethanol]
145 to 148 °C	CCc1c(Cc2ncc[nH]2)nn(CC)c1Oc1cc(Cl)cc(Cl)c1 [Cpd 88, 5-(3,5-Dichloro-phenoxy)-1,4-diethyl-3-(1H-imidazol-2-ylmethyl)-1H-pyrazole]
142 to 145.2 °C	CCc1c(Cc2cnc[nH]2)nn(CC)c1Oc1cc(Cl)cc(Cl)c1 [Cpd 90, 5-(3,5-Dichloro-phenoxy)-1,4-diethyl-3-(3H-imidazol-4-ylmethyl)-1H-pyrazole]

More lines, now with the values behind:

SMILES	melting point
CCc1c(CC(=O)Nc2ccccc2)nn(CC)c1Oc1cc(Cl)cc(Cl)c1 [Cpd 86, 2-[5-(3,5-Dichloro-phenoxy)-1,4-iethyl-1H-pyrazol-3-yl]-N-phenyl-acetamide]	112.2 to 115.9 °C
CCc1c(CC(=O)Nc2ccccc2)nn(C(C)C)c1Oc1cc(Cl)cc(Cl)c1 [Cpd 87, 2-[5-(3,5-Dichloro-phenoxy)-4-ethyl-1-isopropyl-1H-pyrazol-3-yl]-N-phenyl-acetamide]	118.9 to 120.9 °C
